Results reported in patent publication US20230312587A1, “PTERIDINONE COMPOUNDS AND USES THEREOF” (Vertex Pharmaceutical Incorporated, priority 2018, published 2023).
pIC50: −log10 of the molar value.

The molecules below were run on β-catenin-TCF-mediated reporter transcription activity in Colo 205 cells (assay: Colo 205 reporter assay (TCF/LEF luciferase)). Conditions: Colo 205 TCF/LEF luciferase reporter, five hours after addition of compound; read-out: TCF reporter Colo205 IC50.
Assay type: cell-based
Outline: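 Luciferase signal from a TCF/LEF-driven reporter, stably integrated in Colo 205 colon cancer cells, was measured 5 h after compound addition.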

With “(S)-7-((S)-1-(tert-butoxy)ethyl)-4,8-dimethyl-2-(((1-(3,4,5-trifluorobenzyl)-1H-pyrazol-4-yl)methyl)amino)-7,8-dihydropteridin-6(5H)-one [Compound 747]” the pIC50 was 6.00 to 6.52.

Same assay, conditions: Homo sapiens, COLO 205, 5 h, Colo 205 TCF/LEF luciferase reporter, five hours after addition of compound; read-out: TCF reporter Colo205 IC50

Compared with Cc1nn(Cc2ccc(C(F)(F)F)nc2)c(C)c1CNc1nc(C)c2c(n1)N(C)[C@@H](C)C(=O)N2 [Compound 212, (7S)-2-(((3,5-Dimethyl-1-((6-(trifluoromethyl)pyridin-3-yl)methyl)-1H-pyrazol-4-yl)methyl)amino)-4,7,8-trimethyl-7,8-dihydropteridin-6(5H)-one], Cc1nc(NCc2cnn(CCc3ccc(C(F)(F)F)nc3)c2)nc2c1NC(=O)[C@H](C)N2C [Compound 444, (7S)-4,7,8-trimethyl-2-(((1-(2-(6-(trifluoromethyl)pyridin-3-yl)ethyl)-1H-pyrazol-4-yl)methyl)amino)-7,8-dihydropteridin-6(5H)-one] is higher in pIC50: no more than 5.30 for the first, 6.00 to 6.52 for the second. The second is the more potent here.

Cc1nc(N[C@H]2C[C@@H](NC(=O)Nc3ccc(C(F)(F)F)nc3)C2)nc2c1NC(=O)[C@H](C)N2C [Compound 473, 1-(6-(trifluoromethyl)pyridin-3-yl)-3-(cis-3-(((S)-4,7,8-trimethyl-6-oxo-5,6,7,8-tetrahydropteridin-2-yl)amino)cyclobutyl)urea] and Cc1nc(N[C@H]2C[C@@H](CNc3cnc(C(F)(F)F)cn3)C2)nc2c1NC(=O)[C@H](C)N2C [Compound 714, (S)-4,7,8-trimethyl-2-((cis-3-(((5-(trifluoromethyl)pyrazin-2-yl)amino)methyl)cyclobutyl)amino)-7,8-dihydropteridin-6(5H)-one] cannot be ordered by pIC50: greater than 6.52 for the first, greater than 6.52 for the second.

COc1ccc(N[C@H]2C[C@@H](Nc3nc(C)c4c(n3)N(C)[C@@H](C(C)C)C(=O)N4)C2)nc1 [Compound 733, (S)-7-isopropyl-2-((cis-3-((5-methoxypyridin-2-yl)amino)cyclobutyl)amino)-4,8-dimethyl-7,8-dihydropteridin-6(5H)-one] and CO[C@H](C)[C@H]1C(=O)Nc2c(C)nc(N[C@H]3C[C@H](n4ccc(C(F)(F)F)n4)C3)nc2N1C [Compound 731, (S)-7-((R)-1-methoxyethyl)-4,8-dimethyl-2-((trans-3-(3-(trifluoromethyl)-1H-pyrazol-1-yl)cyclobutyl)amino)-7,8-dihydropteridin-6(5H)-one] cannot be ordered by pIC50: no more than 5.30 for the first, no more than 5.30 for the second.

Compared with Cc1nc(NCc2cnn(C3CCOCC3)c2)nc2c1NC(=O)[C@H](C)N2C [Compound 118, (7S)-4,7,8-trimethyl-2-(((1-(tetrahydro-2H-pyran-4-yl)-1H-pyrazol-4-yl)methyl)amino)-7,8-dihydropteridin-6(5H)-one], Cc1nc(NCc2cnn(C3CCc4ccc(F)cc43)c2)nc2c1NC(=O)[C@H](C)N2C (stereo partly drawn) [Compound 117, (7S)-2-(((1-(6-fluoro-2,3-dihydro-1H-inden-1-yl)-1H-pyrazol-4-yl)methyl)amino)-4,7,8-trimethyl-7,8-dihydropteridin-6(5H)-one] is higher in pIC50: no more than 5.30 for the first, greater than 6.52 for the second. The second is the more potent here.

CO[C@H](C)[C@H]1C(=O)Nc2c(C)nc(NC3CN(C(=O)c4cc(F)c(F)c(F)c4)C3)nc2N1C [Compound 568, (S)-7-((R)-1-methoxyethyl)-4,8-dimethyl-2-((1-(3,4,5-trifluorobenzoyl)azetidin-3-yl)amino)-7,8-dihydropteridin-6(5H)-one] and Cc1nc(NC2CN(Cc3cc(F)c(F)c(F)c3)C2)nc2c1NC(=O)[C@H](C(C)C)N2C [Compound 591, (S)-7-isopropyl-4,8-dimethyl-2-((1-(3,4,5-trifluorobenzyl)azetidin-3-yl)amino)-7,8-dihydropteridin-6(5H)-one] cannot be ordered by pIC50: greater than 6.52 for the first, greater than 6.52 for the second.

CC[C@H]1C(=O)Nc2c(C)nc(NCc3cnn(Cc4ccc(OCC(F)(F)F)nc4)c3)nc2N1C [Compound 433, (7S)-7-ethyl-4,8-dimethyl-2-(((1-((6-(2,2,2-trifluoroethoxy)pyridin-3-yl)methyl)-1H-pyrazol-4-yl)methyl)amino)-7,8-dihydropteridin-6(5H)-one] and CC[C@H]1C(=O)Nc2c(C)nc(NCc3cnn(Cc4cnc(Cl)c(F)c4)c3)nc2N1C [Compound 426, (7S)-2-(((1-((6-chloro-5-fluoropyridin-3-yl)methyl)-1H-pyrazol-4-yl)methyl)amino)-7-ethyl-4,8-dimethyl-7,8-dihydropteridin-6(5H)-one] cannot be ordered by pIC50: greater than 6.52 for the first, greater than 6.52 for the second.

First: Cc1nc(NCc2cnn(Cc3ccc(Cl)nc3)c2)nc2c1NC(=O)[C@H](C(C)C)N2C [Compound 414, (7S)-2-(((1-((6-chloropyridin-3-yl)methyl)-1H-pyrazol-4-yl)methyl)amino)-7-isopropyl-4,8-dimethyl-7,8-dihydropteridin-6(5H)-one]
Second: Cc1nc(NCc2cnn(Cc3ccnc(Cl)c3)c2)nc2c1NC(=O)[C@H](C)N2C [Compound 185, (7S)-2-(((1-((2-chloropyridin-4-yl)methyl)-1H-pyrazol-4-yl)methyl)amino)-4,7,8-trimethyl-7,8-dihydropteridin-6(5H)-one]
The pIC50 of the first is higher: greater than 6.52 for the first, 6.00 to 6.52 for the second.

Compared with Cc1nc(NCc2cnn(Cc3ccc(C4CC4)nc3)c2)nc2c1NC(=O)[C@H](C1CC1)N2C [Compound 441, (7S)-7-cyclopropyl-2-(((1-((6-cyclopropylpyridin-3-yl)methyl)-1H-pyrazol-4-yl)methyl)amino)-4,8-dimethyl-7,8-dihydropteridin-6(5H)-one], Cc1nc(NCc2cnn(Cc3cccnc3)c2)nc2c1NC(=O)[C@H](C)N2C [Compound 198, (7S)-4,7,8-trimethyl-2-(((1-(pyridin-3-ylmethyl)-1H-pyrazol-4-yl)methyl)amino)-7,8-dihydropteridin-6(5H)-one] is lower in pIC50: greater than 6.52 for the first, 5.30 to 6.00 for the second.

First: Cc1nc(N[C@H]2C[C@@H](COc3cncc(F)c3)C2)nc2c1NC(=O)[C@H](C)N2C [Compound 263, (7S)-2-((cis-3-(((5-fluoropyridin-3-yl)oxy)methyl)cyclobutyl)amino)-4,7,8-trimethyl-7,8-dihydropteridin-6(5H)-one]
Second: Cc1nc(N[C@H]2C[C@@H](COc3cncc(C(F)(F)F)c3)C2)nc2c1NC(=O)[C@H](C)N2C [Compound 363, (7S)-4,7,8-trimethyl-2-((cis-3-(((5-(trifluoromethyl)pyridin-3-yl)oxy)methyl)cyclobutyl)amino)-7,8-dihydropteridin-6(5H)-one]
The pIC50 of the first is lower: 6.00 to 6.52 for the first, greater than 6.52 for the second. The second is the more potent here.

Cc1nc(NCc2cnn(Cc3cccc(F)c3)c2)nc2c1NC(=O)[C@H](C)N2C [Compound 69, (7S)-2-(((1-(3-fluorobenzyl)-1H-pyrazol-4-yl)methyl)amino)-4,7,8-trimethyl-7,8-dihydropteridin-6(5H)-one] and Cc1nc(NCc2cnn(CCCc3ccc(F)cc3)c2)nc2c1NC(=O)[C@H](C)N2C [Compound 104, (7S)-2-(((1-(3-(4-fluorophenyl)propyl)-1H-pyrazol-4-yl)methyl)amino)-4,7,8-trimethyl-7,8-dihydropteridin-6(5H)-one] cannot be ordered by pIC50: greater than 6.52 for the first, greater than 6.52 for the second.

COC1(C2C(=O)Nc3c(C)nc(NCc4cnn(Cc5cc(F)c(F)c(F)c5)c4)nc3N2C)CCC1 (stereo not shown) [Compound 668, 7-(1-methoxycyclobutyl)-4,8-dimethyl-2-(((1-(3,4,5-trifluorobenzyl)-1H-pyrazol-4-yl)methyl)amino)-7,8-dihydropteridin-6(5H)-one] and COC1(C2C(=O)Nc3c(C)nc(N[C@H]4C[C@H](COc5ccc(C(F)(F)F)nc5)C4)nc3N2C)CCC1 (relative stereo) [Compound 669, 7-(1-methoxycyclobutyl)-4,8-dimethyl-2-((trans-3-(((6-(trifluoromethyl)pyridin-3-yl)oxy)methyl)cyclobutyl)amino)-7,8-dihydropteridin-6(5H)-one] cannot be ordered by pIC50: greater than 6.52 for the first, greater than 6.52 for the second.

Compared with Cc1nc(NCc2cc(C)n(Cc3ccc(F)cc3)c2C)nc2c1NC(=O)[C@H](C(C)C)N2C [Compound 508, (S)-2-(((1-(4-fluorobenzyl)-2,5-dimethyl-1H-pyrrol-3-yl)methyl)amino)-7-isopropyl-4,8-dimethyl-7,8-dihydropteridin-6(5H)-one], Cc1nc(NCc2cnn(C[C@H](C)c3ccccc3)c2)nc2c1NC(=O)[C@H](C)N2C [Compound 90, (7S)-4,7,8-trimethyl-2-(((1-((R)-2-phenylpropyl)-1H-pyrazol-4-yl)methyl)amino)-7,8-dihydropteridin-6(5H)-one] is higher in pIC50: 6.00 to 6.52 for the first, greater than 6.52 for the second. The second is the more potent here.

C[C@H]1C(=O)Nc2cnc(NCc3ccc(Oc4ccc(F)cc4)nc3)nc2N1C [Compound 56, (7S)-2-(((6-(4-fluorophenoxy)pyridin-3-yl)methyl)amino)-7,8-dimethyl-7,8-dihydropteridin-6(5H)-one] and CCN1C(=O)[C@H](CCO)N(CC)c2nc(NCc3cnn(Cc4cccc(C(F)(F)F)c4)c3)ncc21 [Compound 49, (7S)-5,8-diethyl-7-(2-hydroxyethyl)-2-(((1-(3-(trifluoromethyl)benzyl)-1H-pyrazol-4-yl)methyl)amino)-7,8-dihydropteridin-6(5H)-one] cannot be ordered by pIC50: greater than 6.52 for the first, greater than 6.52 for the second.

Cc1nc(NC2CN(C(=O)c3cnon3)C2)nc2c1NC(=O)[C@H](C(C)C)N2C [Compound 617, (S)-2-((1-(1,2,5-oxadiazole-3-carbonyl)azetidin-3-yl)amino)-7-isopropyl-4,8-dimethyl-7,8-dihydropteridin-6(5H)-one] and Cc1nc(NC2CN(C(=O)C3CCC(F)(F)CC3)C2)nc2c1NC(=O)[C@H](C(C)C)N2C [Compound 543, (S)-2-((1-(4,4-difluorocyclohexane-1-carbonyl)azetidin-3-yl)amino)-7-isopropyl-4,8-dimethyl-7,8-dihydropteridin-6(5H)-one] cannot be ordered by pIC50: no more than 5.30 for the first, 5.30 to 6.00 for the second.

Same assay, conditions: Homo sapiens, COLO 205, 5 h, R-isomer at C2 (corresponding to C2 S-isomer); Colo 205 TCF/LEF luciferase reporter, 5 h; read-out: TCF reporter Colo205 IC50

First: COc1c(F)cc(Cn2cc(CNc3nc(C)c4c(n3)N(C)[C@H](C)C(=O)N4)cn2)cc1F [Compound I-1205]
Second: CC[C@@H]1C(=O)Nc2cnc(NCc3cnn(Cc4ccc(C(F)(F)F)nc4)c3)nc2N1C(C)C [Compound I-1646]
The pIC50 of the first is higher: greater than 6.52 for the first, no more than 5.30 for the second. The first is the more potent here.
